Assays:
[1] = system: late-phase of long-term potentiation (LTP); conditions: ref [27]; cited from earlier work
Description: (§1) The potential contribution of ECM remodeling to learning and memory has only recently been addressed. Our laboratory has focused on hippocampal mediated spatial memory and measured elevations in hippocampal MMP-3 and MMP-9 during acquisition of the Morris water maze task.

[2] = icv, 7.2 mM stock, 10 μL (35 μg) twice, cumulative 70 μg; ref [27]; cited from earlier work
Description: as §1

[3] = system: cell nuclei of hippocampal sections; assay: Cell nuclei (DAPI) appearance in hippocampal sections, cellular toxicity; design: species or system rat; conditions: 14.4 mM; vs PBS
Protocol: (§2) Naïve rats were euthanized by decapitation, their brains were sectioned (10 μm) using a cryostat and the sections were mounted on slides and stored at −80°C for no longer than a week. These sections were warmed to room temperature for 10 minutes and preincubated for 3 hours in either PBS (pH 7.4 control) or 14.4 mM FN-439 in PBS at 37°C. The control slides were then incubated for an additional hour with DQ-gelatin-FITC (DQ, Molecular Probes, Eugene, Ore) and the treated slides were incubated with DQ containing 14.4 mM FN-439 for 1 additional hour. Following incubation, the slides were washed in PBS, fixed with 4% paraformaldehyde in PBS, and cover slipped using prolong antifade mounting medium containing DAPI (Molecular Probes, Eugene, Ore). The slides were examined using a Zeiss Axioplan 2I microscope using epifluorescent illumination and appropriate filter sets for visualizing DQ (FITC) and DAPI (UV) fluorescence. Images were captured at 100–200X magnification using a Kodak DC290 digital camera and Photoshop software (Adobe Systems Inc, San Jose, Calif).

[4] = system: LTP in the sprouting crossed temporodentate pathway; conditions: icv 350 μg, following unilateral lesions of the entorhinal cortex; ref Reeves et al. [19]; cited from earlier work
[5] = molecular target: T1, MMP-3 (stromelysin-1) catalytic domain (Homo sapiens, UniProt P08254); assay: MMP fluorescence enzyme assay, MMP-3 catalytic domain; assay type: biochemical
T1 construct: Catalytic domains for MMP-3 and -9 were used; purchased Biomol International LP
Protocol: (§3) Enzyme assays for MMP activity were conducted in black 96-well plates according to manufacturer instructions (Biomol International LP, Plymouth Meeting, Pa). Catalytic domains for MMP-3 and -9 were used with the fluorogenic peptide substrate: Mca-Pro-Leu-Gly-Leu-Dpa-Ala-Arg-NH2. Solutions were preincubated with FN-439 for 30 minutes at 37°C. Subsequently, the fluorogenic peptide substrate was added and fluorescence was measured at 10-minute intervals for one hour using a Perkin-Elmer plate reader. Slopes were derived from the linear portion of the curves and background slopes were subtracted from all samples. The slopes were normalized as percent of enzyme activity compared with activity in the absence of inhibitor. IC50 values were extrapolated using quadratic and sigmoidal curve fit programs for each sample and were averaged.

MMP-9 = conditions: 7.2 mM stock in aCSF infused over 30 min, 100 μL (350 μg); vs aCSF control; ref Reeves et al. [19]; cited from earlier work
[6] = Morris water maze task, probe trial; assay type: in vivo, male Sprague-Dawley rats; conditions: for time spent in the target quadrant: 70 μg/day cumulative, 120-s probe trial on day 8, mean ± SEM
Description: The protocols utilized in this investigation minimized pain and discomfort, were approved by the Washington State University Institutional Animal Care and Use Committee, and conformed to the guidelines for the care and use of laboratory animals as required by the National Institutes of Health Guide for the Care and Use of Laboratory Animals (NIH Publication No. 80-23). Male Sprague-Dawley rats (300–350 g, breeding stock derived from Taconic, Germantown, NY) were adapted to a 12-hour light/dark cycle initiated at 0600 hour in the American Association for the Accreditation of Laboratory Animal Care approved vivarium at a temperature of 21 ± 1°C. The animals were housed in pairs and provided with water and food (Harlan Teklad F6 Rodent Diet, Madison, WI) ad libitum except the night prior to surgery when food was withheld. Each animal was prepared with bilateral guide cannulas targeting either the dorsal hippocampi (flat skull coordinates relative to bregma: post: −4.0 mm, lat: ±2.5 mm from midline) or lateral ventricles (post: 1.0 mm, lat: ±1.5 mm from midline) under ketamine-xylazine anesthesia (100 and 2 mg/kg, resp., intramuscularly). The guide was constructed from PE-60 tubing (Clay Adams, Parsippany, NJ) with a heat bulge that rested on top of the cranium thus serving as a stop to further penetration. The total length of the guide was 2.5 cm with a distance from the beveled tip to the heat bulge of 2.0 and 2.5 mm for the dorsal hippocampus and icv, respectively. All infusions were made using a 30-gauge stainless-steel tubing injector with a beveled end that protruded 2.0 mm beyond the tip of the PE guide cannula. The injector was attached to a 10 μL Hamilton syringe by PE-20 tubing. The animals were hand gentled for 5 minutes per day during the 7 days of recovery from surgery. […]
The Morris water maze task was used to test spatial memory acquisition. […] Swim speed was determined from these values. […]

[7] = molecular target: T2, MMP-9 (gelatinase B) catalytic domain (Homo sapiens, UniProt P14780); assay: MMP fluorescence enzyme assay, MMP-9 catalytic domain; assay type: biochemical
T2 construct: Catalytic domains for MMP-3 and -9 were used; purchased Biomol International LP
Protocol: as §3

[8] = Morris water maze task, acquisition training; assay type: in vivo, male Sprague-Dawley rats; conditions: for positive thigmotaxis (ratio of time near the wall to total trial time), day 8 / day 8 latency to find the platform / day 8 distance swum to find the platform: 70 μg/day cumulative; for day 8 latency to find the platform / day 8 distance swum to find the platform: mean ± SEM; for day 8 latency to find the platform: n = 8; for overall swim speed during the 8 days of training: no difference; for distance to find the platform, representative rat / latency to find the platform, representative rat: single rat, day 8 trial
Description: The protocols utilized in this investigation minimized pain and discomfort, were approved by the Washington State University Institutional Animal Care and Use Committee, and conformed to the guidelines for the care and use of laboratory animals as required by the National Institutes of Health Guide for the Care and Use of Laboratory Animals (NIH Publication No. 80-23). Male Sprague-Dawley rats (300–350 g, breeding stock derived from Taconic, Germantown, NY) were adapted to a 12-hour light/dark cycle initiated at 0600 hour in the American Association for the Accreditation of Laboratory Animal Care approved vivarium at a temperature of 21 ± 1°C. The animals were housed in pairs and provided with water and food (Harlan Teklad F6 Rodent Diet, Madison, WI) ad libitum except the night prior to surgery when food was withheld. Each animal was prepared with bilateral guide cannulas targeting either the dorsal hippocampi (flat skull coordinates relative to bregma: post: −4.0 mm, lat: ±2.5 mm from midline) or lateral ventricles (post: 1.0 mm, lat: ±1.5 mm from midline) under ketamine-xylazine anesthesia (100 and 2 mg/kg, resp., intramuscularly). The guide was constructed from PE-60 tubing (Clay Adams, Parsippany, NJ) with a heat bulge that rested on top of the cranium thus serving as a stop to further penetration. The total length of the guide was 2.5 cm with a distance from the beveled tip to the heat bulge of 2.0 and 2.5 mm for the dorsal hippocampus and icv, respectively. All infusions were made using a 30-gauge stainless-steel tubing injector with a beveled end that protruded 2.0 mm beyond the tip of the PE guide cannula. The injector was attached to a 10 μL Hamilton syringe by PE-20 tubing. The animals were hand gentled for 5 minutes per day during the 7 days of recovery from surgery. Those animals prepared with dorsal hippocampus guide cannulas were randomly assigned to one of two groups (8 rats each) that received either FN-439 or artificial cerebrospinal fluid vehicle (aCSF; in mM: 124 NaCl, 3 KCl, 1.24 […], 1.3 MgSO4, 2.0 CaCl2, 26 NaHCO3, and 10 D-glucose). Those animals prepared with icv cannulas were similarly assigned.
Our laboratory previously used a 7.2 mM stock in aCSF icv infused over 5 minutes to a total volume of 10 μL (35 μg) 10 minutes prior to behavioral testing, and again 3 hours post-testing (cumulative dose = 70 μg). Presently, we utilized a 14.4 mM stock in aCSF infused over 1 minute to a total volume of 5 μL, that is, 2.5 μL for each side (17.5 μg in 2.5 μL aCSF/min) 20 minutes prior to behavioral testing (5 trials), and again 10 minutes after testing (cumulative dose = 70 μg) each day. The protocol used for icv infusion was 35 μg in 5 μL aCSF infused over 1 minute, 20 minutes prior to testing and again 10 minutes following testing (cumulative dose = 70 μg). Behavioral testing in the Morris water maze task was conducted by an experimenter blind to the treatment of each animal.
The Morris water maze task was used to test spatial memory acquisition. This protocol has been described in detail. Briefly, each trial entailed placing the animal into the water facing the wall of the pool (1.6 m in diameter painted black, filled to a depth of 30 cm) at one of four locations (North (N), South (S), East (E), and West (W)) and tracking its swimming path and duration (Chromatrac; San Diego Instruments, San Diego, Calif) until the submerged platform was found (12 cm in diameter painted black, 2 cm below the surface). Swim speed was determined from these values. If the animal located the platform within 120 seconds it was permitted 30 seconds on the platform before the next trial commenced. […] The animal's entry point was randomized on each trial, and the location of the platform was randomly assigned to one of the four quadrants and remained fixed for each animal throughout training (5 trials/day for 8 days). At the conclusion of the 5 acquisition trials on day 8 each animal was administered one probe trial. […]

[9] = system: MMP-2 and MMP-9 gelatinase activity in the hippocampus; assay: In situ zymography of hippocampal sections (DQ-gelatin-FITC); design: species or system rat; conditions: 14.4 mM, 3 h preincubation at 37°C plus 1 h with DQ-gelatin, vs PBS
Protocol: as §2

HG gelatinase = conditions: ref Odake et al. [37], read-out: IC50 against gelatinase; cited from earlier work
Description: (§4) There are at least two possible explanations for these differences. First, Odake and colleagues used HSF stromelysin and HG gelatinase as substrates, while we used MMP-3 (stromelyisin-1) and MMP-9 (gelatinase B). Secon ...

HSF stromelysin = conditions: ref Odake et al. [37], read-out: IC50 against stromelysin; cited from earlier work
Description: as §4

[10] = catalytic domain, substrate Mca-Pro-Leu-Gly-Leu-Dpa-Ala-Arg-NH2, 30 min preincubation at 37°C, fluorescence at 10-min intervals for one hour, mean ± SEM

T2 sequence (P14780 107-457 limits assumed): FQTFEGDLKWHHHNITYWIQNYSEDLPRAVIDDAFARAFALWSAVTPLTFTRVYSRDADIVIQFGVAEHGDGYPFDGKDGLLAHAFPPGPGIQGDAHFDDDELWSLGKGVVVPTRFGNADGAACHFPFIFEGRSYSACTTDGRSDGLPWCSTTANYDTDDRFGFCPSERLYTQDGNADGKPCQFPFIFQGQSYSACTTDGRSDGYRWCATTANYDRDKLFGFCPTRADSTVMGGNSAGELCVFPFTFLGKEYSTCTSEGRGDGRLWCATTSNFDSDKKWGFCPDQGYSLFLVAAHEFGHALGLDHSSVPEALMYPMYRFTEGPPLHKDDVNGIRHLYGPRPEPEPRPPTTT
T1 sequence (P08254 100-272 limits assumed): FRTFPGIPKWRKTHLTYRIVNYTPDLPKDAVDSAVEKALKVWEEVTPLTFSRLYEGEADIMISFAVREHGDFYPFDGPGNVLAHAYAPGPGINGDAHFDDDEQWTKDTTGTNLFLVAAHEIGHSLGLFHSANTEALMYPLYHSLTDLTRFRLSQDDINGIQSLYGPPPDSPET

CC(C)C[C@@H](NC(=O)[C@@H]1CCCN1C(=O)CNC(=O)c1ccc(N)cc1)C(=O)N[C@H](C)C(=O)NO [FN-439, 4-Abz-Gly-Pro-D-Leu-D-Ala-OH]
late-phase of long-term potentiation (LTP) [1]: interfered with the late-phase of long-term potentiation
acquisition of the Morris water maze task [2]: disrupted the acquisition of the Morris water maze task
cellular toxicity (blue fluorescence of cell nuclei) [3]: no cellular toxicity
LTP in the sprouting pathway [4]: lack the ability to demonstrate LTP in the sprouting pathway
IC50 [5, 10]: 16.2 ± 7.8 µM
effect upon the MMP-3 catalytic domain (in words) ([5]; in vitro fluorescence assay): maximal effect
inhibition of MMP-9 activity (MMP-9): 83.6%
time spent in the target quadrant ([6]; dorsal hippocampus, aCSF hippocampus 40.7 ± 2.2 s): 34.3 ± 2.7 s
number of entries into the target quadrant ([6]; hippocampus or icv, probe trial day 8, groups compared incl. aCSF (F3,28 = 0.98, P > .10)): no differences
time spent in the target quadrant ([6]; icv, aCSF icv 47.1 ± 4.0 s): 28.4 ± 0.8 s
IC50 [7, 10]: 210 ± 37.8 µM
specificity for the MMP-9 catalytic domain (in words) ([7]; in vitro fluorescence assay): good specificity
acquisition of the Morris water maze task (in words) ([8]; bilateral into dorsal hippocampi or icv, 8 days, vs aCSF): significantly interfered with the acquisition of the task
positive thigmotaxis (ratio of time near the wall to total trial time), day 8 ([8]; dorsal hippocampus, aCSF hippocampus 0.17 ± 0.06): 0.37 ± 0.09
day 8 latency to find the platform ([8]; dorsal hippocampus, bilateral, aCSF hippocampus 13.4 ± 1.0 s): 37.9 ± 8.4 s
day 8 distance swum to find the platform ([8]; dorsal hippocampus, bilateral, aCSF hippocampus 4.2 ± 0.5 m): 12.1 ± 2.9 m
overall swim speed during the 8 days of training ([8]; dorsal hippocampus, aCSF hippocampus 0.30 ± 0.02 m/s): 0.32 ± 0.02 m/s
latencies to find the platform on days 5–8 (in words) ([8]; hippocampus or icv, vs aCSF, P < .05): significantly longer latencies
positive thigmotaxis (ratio of time near the wall to total trial time), day 8 ([8]; icv, aCSF icv 0.14 ± 0.05): 0.45 ± 0.11
day 8 latency to find the platform ([8]; icv, aCSF icv 14.3 ± 1.9 s): 44.4 ± 10.7 s
day 8 distance swum to find the platform ([8]; icv, aCSF icv 5.8 ± 0.7 m): 12.9 ± 2.7 m
overall swim speed during the 8 days of training ([8]; icv, aCSF icv 0.31 ± 0.02 m/s): 0.31 ± 0.02 m/s
dorsal hippocampus infusion compared with icv delivery (in words) ([8]; interference with acquisition of the Morris water maze task): equivalently effective
distance to find the platform, representative rat ([8]; dorsal hippocampus, aCSF rat 5.9 m): 17.9 m
latency to find the platform, representative rat ([8]; dorsal hippocampus, aCSF rat 15 s): 38.3 s
distance to find the platform, representative rat ([8]; icv, aCSF rat 4.7 m): 14.8 m
latency to find the platform, representative rat ([8]; icv, aCSF rat 13.3 s): 43.9 s
inhibition of MMP-2 and MMP-9 in the hippocampus ([9]; dentate gyrus): significantly inhibited
basal activity of MMP-9 (green fluorescence) [9]: significantly reduced
IC50 (HG gelatinase): 30 µM
IC50 (HSF stromelysin): 150 µM

— PMC1838960, “Inhibition of Hippocampal Matrix Metalloproteinase-3 and -9 Disrupts Spatial Memory” (Neural Plasticity, 2006)
